According to ChEMBL document CHEMBL1201862, “PubChem BioAssay data set” (2004):
Calls of active or inactive are those of the source. Cut-off read from the data, not from the text of the source, for most assays here: actives have a measured IC50 and inactives only a lower limit.

Tests used:
[1] = target: Large T antigen (Simian virus 40, UniProt P03070); type: functional, Betapolyomavirus macacae;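 note: Confirmatory-stage PubChem screen for compounds that inhibit SV40 T antigen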
[2] = target: Intestinal-type alkaline phosphatase (Homo sapiens, UniProt P09923); test: activation of human intestinal alkaline phosphatase – biochemical, dose response (AID 488873); type: functional
[3] = target: Intestinal-type alkaline phosphatase (Mus musculus, UniProt P24822); test: mouse intestinal alkaline phosphatase activators, dose response, biochemical, luminescence, uHTS hits (AID 488783); type: functional
[4] = target: T1, Alkaline phosphatase, tissue-nonspecific isozyme (Homo sapiens, UniProt P05186); test: activation of tissue-nonspecific alkaline phosphatase – biochemical, TNAP isozyme, mouse IAP uHTS hits, selectivity assay for mouse IAP activator project, dose response (AID 488880); type: functional
T1 sequence (P05186 whole entry): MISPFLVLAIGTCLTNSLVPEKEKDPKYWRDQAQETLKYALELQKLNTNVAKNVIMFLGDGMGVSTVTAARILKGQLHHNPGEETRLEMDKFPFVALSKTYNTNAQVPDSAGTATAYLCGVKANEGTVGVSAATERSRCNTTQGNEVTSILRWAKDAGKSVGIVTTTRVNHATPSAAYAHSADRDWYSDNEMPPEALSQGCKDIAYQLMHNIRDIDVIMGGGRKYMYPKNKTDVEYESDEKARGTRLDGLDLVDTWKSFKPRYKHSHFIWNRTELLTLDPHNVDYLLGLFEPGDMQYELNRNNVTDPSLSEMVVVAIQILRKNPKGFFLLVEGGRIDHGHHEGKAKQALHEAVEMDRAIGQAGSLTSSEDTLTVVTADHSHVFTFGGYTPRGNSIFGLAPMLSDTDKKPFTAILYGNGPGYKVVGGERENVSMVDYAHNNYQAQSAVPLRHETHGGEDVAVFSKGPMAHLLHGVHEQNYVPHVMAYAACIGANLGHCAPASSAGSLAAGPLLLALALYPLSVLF

[5] = viability of uninfected HEp-2 cells – cell-based, HTS, cytotoxicity control for RSV inhibitor project, dose response (AID 2410); type: functional; details: human respiratory syncytial virus
[6] = target: T2, Tyrosine-protein phosphatase non-receptor type 22 (Homo sapiens, UniProt Q9Y2R2); test: LYP1 Fluorescent Assay using OMFP substrate for In Vitro dose response studies. [Related pubchem assays (depositor defined):AID1779, AID1784, AID435024]
T2 sequence (Q9Y2R2 whole entry): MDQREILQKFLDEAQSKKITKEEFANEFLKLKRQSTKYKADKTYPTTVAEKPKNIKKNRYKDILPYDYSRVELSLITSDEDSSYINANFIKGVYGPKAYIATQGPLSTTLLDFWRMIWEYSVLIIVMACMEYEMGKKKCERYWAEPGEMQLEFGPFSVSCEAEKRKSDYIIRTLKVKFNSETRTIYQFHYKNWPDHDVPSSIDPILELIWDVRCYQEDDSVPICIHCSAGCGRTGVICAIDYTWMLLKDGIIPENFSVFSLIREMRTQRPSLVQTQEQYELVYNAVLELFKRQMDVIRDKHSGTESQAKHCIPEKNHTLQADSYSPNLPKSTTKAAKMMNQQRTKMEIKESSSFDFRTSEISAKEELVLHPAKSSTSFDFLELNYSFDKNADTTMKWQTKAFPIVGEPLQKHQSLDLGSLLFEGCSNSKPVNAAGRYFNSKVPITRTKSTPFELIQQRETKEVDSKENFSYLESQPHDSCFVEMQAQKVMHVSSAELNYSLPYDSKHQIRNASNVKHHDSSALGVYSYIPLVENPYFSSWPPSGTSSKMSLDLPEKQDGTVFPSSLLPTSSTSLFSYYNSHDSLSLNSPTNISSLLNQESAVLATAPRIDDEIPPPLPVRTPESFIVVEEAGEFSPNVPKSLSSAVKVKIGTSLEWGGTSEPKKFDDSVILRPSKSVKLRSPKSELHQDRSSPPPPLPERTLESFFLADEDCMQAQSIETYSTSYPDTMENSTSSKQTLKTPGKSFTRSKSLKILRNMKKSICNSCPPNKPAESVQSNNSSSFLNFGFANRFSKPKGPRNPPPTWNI

[7] = target: T3, Tyrosine-protein phosphatase non-receptor type 7 (Homo sapiens, UniProt P35236); type: functional
T3 sequence (P35236 whole entry): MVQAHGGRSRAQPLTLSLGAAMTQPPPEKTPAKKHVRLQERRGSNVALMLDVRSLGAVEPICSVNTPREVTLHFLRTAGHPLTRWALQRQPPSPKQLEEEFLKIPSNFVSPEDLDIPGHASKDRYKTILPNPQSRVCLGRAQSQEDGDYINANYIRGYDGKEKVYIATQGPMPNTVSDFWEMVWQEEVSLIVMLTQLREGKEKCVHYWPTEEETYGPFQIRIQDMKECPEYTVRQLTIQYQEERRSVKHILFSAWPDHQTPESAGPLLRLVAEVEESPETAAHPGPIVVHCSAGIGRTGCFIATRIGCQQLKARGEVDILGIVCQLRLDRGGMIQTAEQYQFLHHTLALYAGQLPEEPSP

[8] = target: T4, Voltage-gated N-type calcium channel alpha-1B subunit/Amyloid beta A4 precursor protein-binding family A member 1 (Homo sapiens, UniProt Q00975+Q02410); type: protein assay
[9] = target: T3, Tyrosine-protein phosphatase non-receptor type 7; test: HTS HePTP Fluorescent Assay using OMFP substrate for In Vitro dose response studies. [Related pubchem assays (depositor defined):AID1059, AID1077, AID1784, AID2068, AID2085, AID435032, AID521]; type: functional
[10] = target: T4, Voltage-gated N-type calcium channel alpha-1B subunit/Amyloid beta A4 precursor protein-binding family A member 1; type: protein assay; remark: listed apart in the source
[11] = target: T2, Tyrosine-protein phosphatase non-receptor type 22; test: PTPN22 lymphoid phosphatase activity blockers – biochemical, fluorescence intensity, uHTS (AID 1779)
[12] = target: T2, Tyrosine-protein phosphatase non-receptor type 22; test: SAR LYP1 Fluorescent Assay using pCAP substrate for In Vitro dose response studies - Set 2. [Related pubchem assays (depositor defined):AID1779, AID1784, AID2135, AID449727]; type: functional
[13] = target: Tyrosine-protein phosphatase non-receptor type 12 (Homo sapiens, UniProt Q05209); test: SAR Selectivity Analysis of small molecule inhibitors of PEST using pCAP in a fluorescence assay. [Related pubchem assays (depositor defined):AID1779, AID1784, AID2135]; type: functional
[14] = target: T2, Tyrosine-protein phosphatase non-receptor type 22; type: functional
[15] = target: T2, Tyrosine-protein phosphatase non-receptor type 22; test: SAR LYP1 Fluorescent Assay using OMFP substrate for In Vitro dose response studies - Set 3. [Related pubchem assays (depositor defined):AID1779, AID1784, AID2140, AID2686]; type: functional
[16] = target: T3, Tyrosine-protein phosphatase non-receptor type 7; test: inhibition of hematopoietic tyrosine phosphatase HePTP – biochemical, set 2, SAR follow-up (AID 449736); type: functional
[17] = target: T2, Tyrosine-protein phosphatase non-receptor type 22; test: inhibition of lymphoid tyrosine phosphatase LYP – biochemical, pCAP fluorogenic substrate, fluorescence, set 3, SAR follow-up (AID 449727); type: functional
[18] = target: T2, Tyrosine-protein phosphatase non-receptor type 22; type: functional; remark: listed apart in the source
[19] = target: T2, Tyrosine-protein phosphatase non-receptor type 22; test: PubChem AID 2135
[20] = target: T2, Tyrosine-protein phosphatase non-receptor type 22; test: PubChem AID 2140
[21] = target: T2, Tyrosine-protein phosphatase non-receptor type 22; test: SAR LYP1 Fluorescent Assay using OMFP substrate for In Vitro dose response studies - Set 2. [Related pubchem assays (depositor defined):AID1779, AID1784, AID2140, AID449726, AID488869]; type: functional

T4 sequence (Q00975 whole entry): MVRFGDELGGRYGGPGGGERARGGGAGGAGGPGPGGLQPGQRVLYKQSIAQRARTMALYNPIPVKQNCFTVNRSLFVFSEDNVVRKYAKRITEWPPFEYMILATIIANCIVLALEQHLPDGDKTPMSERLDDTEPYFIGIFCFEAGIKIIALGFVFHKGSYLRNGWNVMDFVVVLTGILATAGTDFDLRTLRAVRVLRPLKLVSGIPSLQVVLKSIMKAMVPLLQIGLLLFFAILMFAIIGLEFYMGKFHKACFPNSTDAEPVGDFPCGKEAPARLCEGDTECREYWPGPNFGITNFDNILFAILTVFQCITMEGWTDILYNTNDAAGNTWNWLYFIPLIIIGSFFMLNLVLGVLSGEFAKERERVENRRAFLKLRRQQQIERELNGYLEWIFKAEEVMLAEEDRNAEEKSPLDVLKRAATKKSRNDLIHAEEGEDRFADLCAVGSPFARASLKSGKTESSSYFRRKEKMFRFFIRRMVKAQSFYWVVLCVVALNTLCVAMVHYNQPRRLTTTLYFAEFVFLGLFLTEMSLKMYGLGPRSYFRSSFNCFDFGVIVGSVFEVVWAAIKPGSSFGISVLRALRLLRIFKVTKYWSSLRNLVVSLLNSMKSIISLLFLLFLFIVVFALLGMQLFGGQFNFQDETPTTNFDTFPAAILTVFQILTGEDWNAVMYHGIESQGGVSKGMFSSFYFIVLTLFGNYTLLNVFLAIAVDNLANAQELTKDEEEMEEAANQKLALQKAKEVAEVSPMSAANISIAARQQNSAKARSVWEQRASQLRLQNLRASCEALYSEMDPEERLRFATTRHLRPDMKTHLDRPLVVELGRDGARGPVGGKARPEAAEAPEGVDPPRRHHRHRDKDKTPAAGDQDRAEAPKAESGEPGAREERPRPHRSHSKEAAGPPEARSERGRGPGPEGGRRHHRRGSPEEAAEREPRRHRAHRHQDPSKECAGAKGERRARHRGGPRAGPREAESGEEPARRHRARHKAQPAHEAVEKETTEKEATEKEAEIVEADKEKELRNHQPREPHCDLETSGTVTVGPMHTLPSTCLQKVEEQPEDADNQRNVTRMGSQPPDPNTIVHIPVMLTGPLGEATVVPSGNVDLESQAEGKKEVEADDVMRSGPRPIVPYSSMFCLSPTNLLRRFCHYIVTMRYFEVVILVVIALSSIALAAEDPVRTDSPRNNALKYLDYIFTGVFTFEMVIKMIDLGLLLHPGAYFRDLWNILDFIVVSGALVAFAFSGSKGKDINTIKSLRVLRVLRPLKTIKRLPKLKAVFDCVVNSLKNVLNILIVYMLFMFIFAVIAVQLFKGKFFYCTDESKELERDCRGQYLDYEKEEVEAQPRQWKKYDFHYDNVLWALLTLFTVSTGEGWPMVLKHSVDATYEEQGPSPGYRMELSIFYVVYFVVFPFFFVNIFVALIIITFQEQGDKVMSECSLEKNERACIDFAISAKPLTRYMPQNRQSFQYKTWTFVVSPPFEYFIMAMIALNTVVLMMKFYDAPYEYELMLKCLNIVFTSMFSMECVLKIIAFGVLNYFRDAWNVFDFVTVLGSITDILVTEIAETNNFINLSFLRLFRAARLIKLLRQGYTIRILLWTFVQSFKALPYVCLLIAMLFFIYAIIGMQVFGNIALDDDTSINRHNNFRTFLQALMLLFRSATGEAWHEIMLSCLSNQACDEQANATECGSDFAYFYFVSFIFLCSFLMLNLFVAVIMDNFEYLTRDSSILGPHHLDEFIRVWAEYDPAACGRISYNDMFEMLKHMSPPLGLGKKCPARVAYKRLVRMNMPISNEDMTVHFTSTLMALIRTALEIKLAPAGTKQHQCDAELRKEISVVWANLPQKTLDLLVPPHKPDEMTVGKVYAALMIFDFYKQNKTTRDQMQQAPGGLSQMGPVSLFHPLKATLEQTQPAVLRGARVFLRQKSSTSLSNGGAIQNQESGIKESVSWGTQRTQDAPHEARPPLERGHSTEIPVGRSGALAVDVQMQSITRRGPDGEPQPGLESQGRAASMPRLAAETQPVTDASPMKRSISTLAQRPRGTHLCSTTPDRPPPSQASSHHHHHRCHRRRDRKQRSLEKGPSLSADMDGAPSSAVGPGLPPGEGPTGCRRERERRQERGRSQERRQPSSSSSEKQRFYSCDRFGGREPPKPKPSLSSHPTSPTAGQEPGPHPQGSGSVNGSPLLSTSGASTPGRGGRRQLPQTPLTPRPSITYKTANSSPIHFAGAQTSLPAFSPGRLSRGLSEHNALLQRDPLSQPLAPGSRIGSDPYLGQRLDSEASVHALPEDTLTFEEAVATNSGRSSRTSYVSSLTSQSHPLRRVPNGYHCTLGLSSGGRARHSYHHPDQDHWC
T4 sequence (Q02410 whole entry): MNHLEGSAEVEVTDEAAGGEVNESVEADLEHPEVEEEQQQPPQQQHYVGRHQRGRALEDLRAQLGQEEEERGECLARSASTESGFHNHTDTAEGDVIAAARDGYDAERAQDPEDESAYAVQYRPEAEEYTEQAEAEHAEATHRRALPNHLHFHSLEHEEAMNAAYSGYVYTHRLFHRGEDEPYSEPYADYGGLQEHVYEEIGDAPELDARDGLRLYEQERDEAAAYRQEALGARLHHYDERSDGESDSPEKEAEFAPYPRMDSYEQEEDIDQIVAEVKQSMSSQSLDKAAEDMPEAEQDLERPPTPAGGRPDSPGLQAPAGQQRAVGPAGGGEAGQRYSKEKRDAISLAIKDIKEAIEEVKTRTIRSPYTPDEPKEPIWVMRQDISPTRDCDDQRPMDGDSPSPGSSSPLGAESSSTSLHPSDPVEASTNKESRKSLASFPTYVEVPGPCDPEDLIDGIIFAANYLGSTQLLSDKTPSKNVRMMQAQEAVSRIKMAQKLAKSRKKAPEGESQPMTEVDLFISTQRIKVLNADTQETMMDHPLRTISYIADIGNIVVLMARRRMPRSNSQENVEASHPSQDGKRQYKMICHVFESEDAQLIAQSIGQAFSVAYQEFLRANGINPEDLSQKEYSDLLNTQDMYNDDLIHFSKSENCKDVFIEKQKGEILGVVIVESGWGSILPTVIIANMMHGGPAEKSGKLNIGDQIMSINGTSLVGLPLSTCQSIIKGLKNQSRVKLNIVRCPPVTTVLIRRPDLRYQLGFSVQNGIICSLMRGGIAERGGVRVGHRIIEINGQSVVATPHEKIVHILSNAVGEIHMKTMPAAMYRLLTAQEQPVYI
Sequence of Intestinal-type alkaline phosphatase (Mus musculus, UniProt P24822) (P24822 whole entry): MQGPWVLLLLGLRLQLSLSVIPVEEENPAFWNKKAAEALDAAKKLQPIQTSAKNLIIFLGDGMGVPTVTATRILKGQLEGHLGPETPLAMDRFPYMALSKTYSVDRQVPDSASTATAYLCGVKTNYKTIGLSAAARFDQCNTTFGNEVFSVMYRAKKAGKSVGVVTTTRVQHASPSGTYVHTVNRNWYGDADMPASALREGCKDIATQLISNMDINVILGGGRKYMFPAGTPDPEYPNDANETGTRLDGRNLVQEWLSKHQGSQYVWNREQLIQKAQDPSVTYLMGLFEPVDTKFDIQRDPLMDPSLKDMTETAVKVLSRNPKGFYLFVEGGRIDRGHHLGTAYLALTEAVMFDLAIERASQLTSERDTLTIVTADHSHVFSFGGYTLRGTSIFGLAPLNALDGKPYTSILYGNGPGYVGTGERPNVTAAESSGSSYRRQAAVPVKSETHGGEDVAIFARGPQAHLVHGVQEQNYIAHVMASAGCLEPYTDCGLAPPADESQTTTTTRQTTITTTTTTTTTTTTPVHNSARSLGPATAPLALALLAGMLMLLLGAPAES
Sequence of Tyrosine-protein phosphatase non-receptor type 12 (Q05209 whole entry): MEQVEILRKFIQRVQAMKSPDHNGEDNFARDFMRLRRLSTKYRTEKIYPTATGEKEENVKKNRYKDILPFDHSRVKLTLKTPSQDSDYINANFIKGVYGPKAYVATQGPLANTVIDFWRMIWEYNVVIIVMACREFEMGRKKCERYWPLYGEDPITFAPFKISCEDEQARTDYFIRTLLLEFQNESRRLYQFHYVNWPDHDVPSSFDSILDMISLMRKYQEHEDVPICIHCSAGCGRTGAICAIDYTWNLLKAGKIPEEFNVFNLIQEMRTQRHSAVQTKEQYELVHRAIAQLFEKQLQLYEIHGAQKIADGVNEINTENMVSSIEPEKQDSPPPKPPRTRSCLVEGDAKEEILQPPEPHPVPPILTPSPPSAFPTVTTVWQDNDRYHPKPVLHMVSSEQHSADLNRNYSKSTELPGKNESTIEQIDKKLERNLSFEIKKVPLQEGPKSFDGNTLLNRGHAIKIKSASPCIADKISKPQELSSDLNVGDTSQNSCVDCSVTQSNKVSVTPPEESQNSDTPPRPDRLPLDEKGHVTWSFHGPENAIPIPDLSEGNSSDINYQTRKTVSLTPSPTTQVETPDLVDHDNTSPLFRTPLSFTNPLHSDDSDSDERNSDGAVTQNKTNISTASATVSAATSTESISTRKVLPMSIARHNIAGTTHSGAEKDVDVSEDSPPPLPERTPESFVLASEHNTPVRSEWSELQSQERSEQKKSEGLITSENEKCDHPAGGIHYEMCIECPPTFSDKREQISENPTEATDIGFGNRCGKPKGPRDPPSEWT
Sequence of Intestinal-type alkaline phosphatase (Homo sapiens, UniProt P09923) (P09923 whole entry): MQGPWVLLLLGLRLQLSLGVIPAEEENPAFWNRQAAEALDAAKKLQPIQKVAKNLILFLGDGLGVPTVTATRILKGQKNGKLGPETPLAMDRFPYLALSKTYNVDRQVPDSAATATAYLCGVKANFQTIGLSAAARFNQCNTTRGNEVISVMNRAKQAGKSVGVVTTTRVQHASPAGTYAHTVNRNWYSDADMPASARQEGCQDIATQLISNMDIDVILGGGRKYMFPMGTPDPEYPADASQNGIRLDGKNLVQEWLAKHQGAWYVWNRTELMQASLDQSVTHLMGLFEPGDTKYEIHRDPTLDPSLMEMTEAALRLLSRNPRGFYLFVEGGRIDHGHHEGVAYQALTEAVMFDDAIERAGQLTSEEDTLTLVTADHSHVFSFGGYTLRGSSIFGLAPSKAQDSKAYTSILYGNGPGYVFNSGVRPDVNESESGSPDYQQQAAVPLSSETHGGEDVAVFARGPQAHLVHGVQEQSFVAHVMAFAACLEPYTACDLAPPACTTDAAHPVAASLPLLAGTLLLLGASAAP

In the case of `N#C/C(=C\c1coc2ccc(O)cc2c1=O)C(=O)/N=c1\[nH]c2ccccc2s1`, the IC50 [1] is reported as 15.9 µM (active), the EC50 [2] is reported as 81.5 µM (active) and the EC50 [3] is reported as 85 µM (active). The EC50 [4] was 88.5 µM (active).
In the case of `N#C/C(=C/c1ccc(OCc2ccc(C(=O)O)cc2)c(Br)c1)c1cccc(F)c1`, the CC50 [5] is reported as > 50 µM (active), the IC50 [6] is reported as 18.8 µM (active) and the IC50 [7] is reported as 14.6 µM (active). For the same compound, the IC50 [8] was 13.7 µM (active), the IC50 [9] was 8.8 µM (active) and the IC50 [10] was > 50 µM (inactive). For the same compound, the IC50 [11] was 12.6 µM (active), the IC50 [12] was 1.6 µM (active) and the IC50 [13] was 1.65 µM (active). The IC50 [14] was 2.61 µM (active), the IC50 [15] was 20.5 µM (active) and the IC50 [16] was 0.481 µM (active). The IC50 [17] was 4.86 µM (active), the IC50 [18] was 15.7 µM (active) and the IC50 [19] was 2.66 µM (active). The IC50 [20] was 7.71 µM (active) and the IC50 [21] was 3.15 µM (active).
